Several values for one entry are separate records, joined by “and”; a condition that tells them apart may be missing. Identical values can stand only once. Inconclusive results and toxic doses are left out. Cut-off read from the data, not from the text of the source: active = T/C of 150% or more; inactive = T/C below 125%.
System: L1210 leukemia ip in BDF1 mice, survival T/C
Test: NCI In Vivo Anticancer Drug Screen. Data for tumor model L1210 Leukemia (intraperitoneal) in B6D2F1 (BDF1) mice
Details: endpoint: mean survival time, higher = longer survival
Method in brief: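 In this screen, tumor-bearing mice given compound are compared to those given vehicle, and their survival values are reported as a treated-to-control quotient.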

[1] = dose: 100.0 mg/kg/injection, schedule: Q01DX009 (ip), vehicle: Klucel (hydroxypropylcellulose) (HPC)
[2] = dose: 200.0 mg/kg/injection, schedule: Q01DX009 (ip), vehicle: Klucel (hydroxypropylcellulose) (HPC)
[3] = dose: 100.0 mg/kg/injection, schedule: Q04DX003 (ip), vehicle: saline
[4] = dose: 200.0 mg/kg/injection, schedule: Q04DX003 (ip), vehicle: saline
[5] = dose: 100.0 mg/kg/injection, schedule: Q04DX003 (ip), vehicle: Klucel (hydroxypropylcellulose) (HPC)
[6] = dose: 200.0 mg/kg/injection, schedule: Q04DX003 (ip), vehicle: Klucel (hydroxypropylcellulose) (HPC)
[7] = dose: 400.0 mg/kg/injection, schedule: Q01DX009 (ip), vehicle: Klucel (hydroxypropylcellulose) (HPC)
[8] = dose: 400.0 mg/kg/injection, schedule: Q04DX003 (ip), vehicle: Klucel (hydroxypropylcellulose) (HPC)

Measured: T/C

CCOC(=O)c1c[n]([Hg][n]2cc(C(=O)OCC)c(Nc3ccccc3Cl)nc2=O)c(=O)nc1Nc1ccccc1Cl
inactive: dose: 3.0 mg/kg/injection, schedule: Q01DX009 (ip), vehicle: saline with Tween-80 96 % of control | dose: 6.0 mg/kg/injection, schedule: Q01DX009 (ip), vehicle: saline with Tween-80 96 % of control | dose: 12.0 mg/kg/injection, schedule: Q01DX009 (ip), vehicle: saline with Tween-80 95 % of control | dose: 12.5 mg/kg/injection, schedule: Q04DX003 (ip), vehicle: saline with Tween-80 100 % of control

CC1([N+](=O)[O-])COC2(CCCCC2)OC1
inactive: dose: 50.0 mg/kg/injection, schedule: Q01DX009 (ip), vehicle: Klucel (hydroxypropylcellulose) (HPC) 100 % of control | [1] 96 % of control | [2] 91 % of control

O=C(N/N=C\c1ccc(O)cc1)N/N=C/c1ccc(O)cc1
inactive: dose: 100.0 mg/kg/injection, schedule: Q01DX001 (ip), vehicle: Klucel (hydroxypropylcellulose) (HPC) 94 % of control | dose: 200.0 mg/kg/injection, schedule: Q01DX001 (ip), vehicle: Klucel (hydroxypropylcellulose) (HPC) 95 % of control | dose: 400.0 mg/kg/injection, schedule: Q01DX001 (ip), vehicle: Klucel (hydroxypropylcellulose) (HPC) 89 % of control

CCCSC1=C(N2CC2)C(=O)C(SCCC)=C(N2CC2)C1=O
inactive: dose: 6.25 mg/kg/injection, schedule: Q04DX003 (ip), vehicle: saline 98 % of control | dose: 12.5 mg/kg/injection, schedule: Q04DX003 (ip), vehicle: saline 104 % of control | dose: 25.0 mg/kg/injection, schedule: Q04DX003 (ip), vehicle: saline 97 % of control | dose: 50.0 mg/kg/injection, schedule: Q04DX003 (ip), vehicle: saline 103 % of control | [3] 108 % of control | [4] 116 % of control

CC(=O)c1ccc(OC(=O)C(C)(C)C)cc1
inactive: dose: 100.0 mg/kg/injection, schedule: Q01DX001 (ip), vehicle: saline 97 % of control | dose: 200.0 mg/kg/injection, schedule: Q01DX001 (ip), vehicle: saline 103 % of control | dose: 400.0 mg/kg/injection, schedule: Q01DX001 (ip), vehicle: saline 98 % of control

CN(C)c1ccc(/C=C/C(=O)c2ccc([N+](=O)[O-])cc2)cc1
inactive: dose: 3.0 mg/kg/injection, schedule: Q01DX009 (ip), vehicle: gum acacia 100 % of control | dose: 6.0 mg/kg/injection, schedule: Q01DX009 (ip), vehicle: gum acacia 96 % of control | dose: 12.0 mg/kg/injection, schedule: Q01DX009 (ip), vehicle: gum acacia 94 % of control | dose: 12.5 mg/kg/injection, schedule: Q01DX009 (ip), vehicle: gum acacia 91 % of control | dose: 100.0 mg/kg/injection, schedule: Q01DX009 (ip), vehicle: gum acacia 87 % of control | dose: 100.0 mg/kg/injection, schedule: Q04DX003 (ip), vehicle: gum acacia 89 % of control | dose: 200.0 mg/kg/injection, schedule: Q04DX003 (ip), vehicle: gum acacia 86 % of control | dose: 400.0 mg/kg/injection, schedule: Q01DX009 (ip), vehicle: gum acacia 96 % of control | dose: 400.0 mg/kg/injection, schedule: Q04DX003 (ip), vehicle: gum acacia 89 % of control

CCc1ccc(NC(=O)C(c2ccccc2)c2ccccc2)cc1
inactive: dose: 50.0 mg/kg/injection, schedule: Q04DX003 (ip), vehicle: Klucel (hydroxypropylcellulose) (HPC) 101 % of control | [1] 92 % of control | [5] 100 % of control | [2] 89 % of control | [6] 93 % of control | [7] 89 % of control | [8] 93 % of control

CC(=O)Nc1ccc(O)cc1
inactive: dose: 100.0 mg/kg/injection, schedule: Q01DX001 (ip), vehicle: carboxymethylcellulose (CMC) 93 % of control | dose: 100.0 mg/kg/injection, schedule: Q04DX002 (ip), vehicle: saline 116 % of control | [5] 97 % of control | dose: 200.0 mg/kg/injection, schedule: Q01DX001 (ip), vehicle: carboxymethylcellulose (CMC) 96 % of control | dose: 200.0 mg/kg/injection, schedule: Q04DX002 (ip), vehicle: saline 100 % of control | [6] 104 % of control | dose: 400.0 mg/kg/injection, schedule: Q01DX001 (ip), vehicle: carboxymethylcellulose (CMC) 107 % of control | dose: 400.0 mg/kg/injection, schedule: Q04DX002 (ip), vehicle: saline 88 % of control | [8] 111 % of control

Cc1cn(-c2c(C)c(C)c(-n3c(C)ccc3C)c(C)c2C)cc1C
inactive: [1] 86 % of control | [2] 93 % of control | [7] 90 % of control

O=C(Nc1cccc(O)c1)Nc1cccc(Cl)c1Cl
inactive: dose: 100.0 mg/kg/injection, schedule: Q01DX009 (ip), vehicle: saline with Tween-80 91 % of control | dose: 200.0 mg/kg/injection, schedule: Q01DX009 (ip), vehicle: saline with Tween-80 92 % of control | dose: 400.0 mg/kg/injection, schedule: Q01DX009 (ip), vehicle: saline with Tween-80 94 % of control

CNC(=O)c1ccc[n+](CC(=O)Nc2ccccc2)c1
inactive: [3] 92 % of control | [4] 102 % of control

CN(C)CCCN1c2ccccc2Sc2ccccc21
inactive: dose: 4.6 mg/kg/injection, schedule: Q01DX009 (ip), vehicle: saline 98 % of control | dose: 9.3 mg/kg/injection, schedule: Q01DX009 (ip), vehicle: saline 105 % of control | dose: 9.37 mg/kg/injection, schedule: Q01DX009 (ip), vehicle: saline 96 % of control | dose: 18.0 mg/kg/injection, schedule: Q01DX001 (ip), vehicle: saline 107 % of control | dose: 18.0 mg/kg/injection, schedule: Q01DX009 (ip), vehicle: saline 112 % of control | dose: 18.0 mg/kg/injection, schedule: Q04DX003 (ip), vehicle: saline 116 % of control | dose: 18.75 mg/kg/injection, schedule: Q01DX009 (ip), vehicle: saline 104 % of control and 108 % of control | dose: 18.75 mg/kg/injection, schedule: Q04DX003 (ip), vehicle: saline 115 % of control | dose: 37.0 mg/kg/injection, schedule: Q01DX001 (ip), vehicle: saline 110 % of control | dose: 37.0 mg/kg/injection, schedule: Q01DX009 (ip), vehicle: saline 112 % of control | dose: 37.0 mg/kg/injection, schedule: Q04DX003 (ip), vehicle: saline 115 % of control | dose: 37.5 mg/kg/injection, schedule: Q01DX009 (ip), vehicle: saline 98 % of control and 122 % of control | dose: 37.5 mg/kg/injection, schedule: Q04DX003 (ip), vehicle: saline 102 % of control | dose: 75.0 mg/kg/injection, schedule: Q01DX001 (ip), vehicle: saline 105 % of control | dose: 75.0 mg/kg/injection, schedule: Q01DX009 (ip), vehicle: saline 122 % of control | dose: 75.0 mg/kg/injection, schedule: Q04DX003 (ip), vehicle: saline 102 % of control and 116 % of control
